Assay results from ChEMBL document CHEMBL1135312, “N-Aroyl-L-phenylalanine derivatives as VCAM/VLA-4 antagonists” (Bioorg Med Chem Lett, 2002).

Experiments:
[1] = target: T1, Integrin alpha-4/beta-1 (Homo sapiens, UniProt P05556+P13612); assay: Inhibitory binding concentration against VCAM/VLA-4 in Ramos.; format: protein-complex assay
[2] = target: T1, Integrin alpha-4/beta-1; assay: Inhibitory binding concentration against VCAM/VLA-4 in ELISA.; format: protein-complex assay

T1 sequence (P05556 whole entry): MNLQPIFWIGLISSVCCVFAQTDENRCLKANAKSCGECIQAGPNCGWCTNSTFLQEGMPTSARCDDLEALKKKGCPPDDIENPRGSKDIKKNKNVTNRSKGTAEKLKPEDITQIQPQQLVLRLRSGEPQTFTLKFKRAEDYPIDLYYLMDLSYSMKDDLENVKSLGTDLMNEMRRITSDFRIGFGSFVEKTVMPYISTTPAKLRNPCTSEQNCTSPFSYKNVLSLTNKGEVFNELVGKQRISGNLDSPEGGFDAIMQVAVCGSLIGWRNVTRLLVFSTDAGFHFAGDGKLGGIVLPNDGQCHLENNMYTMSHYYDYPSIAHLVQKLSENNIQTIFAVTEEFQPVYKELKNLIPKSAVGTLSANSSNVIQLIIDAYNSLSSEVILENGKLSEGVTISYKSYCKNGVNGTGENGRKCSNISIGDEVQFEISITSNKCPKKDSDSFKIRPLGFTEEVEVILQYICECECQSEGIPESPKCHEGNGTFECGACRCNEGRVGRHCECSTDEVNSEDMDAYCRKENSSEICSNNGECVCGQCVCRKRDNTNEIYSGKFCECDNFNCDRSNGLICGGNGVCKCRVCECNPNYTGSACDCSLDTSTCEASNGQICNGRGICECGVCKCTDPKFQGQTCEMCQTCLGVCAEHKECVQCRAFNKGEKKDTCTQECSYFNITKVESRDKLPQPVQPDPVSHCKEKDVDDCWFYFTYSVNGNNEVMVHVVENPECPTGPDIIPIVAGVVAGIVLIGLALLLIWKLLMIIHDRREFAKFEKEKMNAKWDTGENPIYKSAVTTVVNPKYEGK
T1 sequence (P13612 whole entry): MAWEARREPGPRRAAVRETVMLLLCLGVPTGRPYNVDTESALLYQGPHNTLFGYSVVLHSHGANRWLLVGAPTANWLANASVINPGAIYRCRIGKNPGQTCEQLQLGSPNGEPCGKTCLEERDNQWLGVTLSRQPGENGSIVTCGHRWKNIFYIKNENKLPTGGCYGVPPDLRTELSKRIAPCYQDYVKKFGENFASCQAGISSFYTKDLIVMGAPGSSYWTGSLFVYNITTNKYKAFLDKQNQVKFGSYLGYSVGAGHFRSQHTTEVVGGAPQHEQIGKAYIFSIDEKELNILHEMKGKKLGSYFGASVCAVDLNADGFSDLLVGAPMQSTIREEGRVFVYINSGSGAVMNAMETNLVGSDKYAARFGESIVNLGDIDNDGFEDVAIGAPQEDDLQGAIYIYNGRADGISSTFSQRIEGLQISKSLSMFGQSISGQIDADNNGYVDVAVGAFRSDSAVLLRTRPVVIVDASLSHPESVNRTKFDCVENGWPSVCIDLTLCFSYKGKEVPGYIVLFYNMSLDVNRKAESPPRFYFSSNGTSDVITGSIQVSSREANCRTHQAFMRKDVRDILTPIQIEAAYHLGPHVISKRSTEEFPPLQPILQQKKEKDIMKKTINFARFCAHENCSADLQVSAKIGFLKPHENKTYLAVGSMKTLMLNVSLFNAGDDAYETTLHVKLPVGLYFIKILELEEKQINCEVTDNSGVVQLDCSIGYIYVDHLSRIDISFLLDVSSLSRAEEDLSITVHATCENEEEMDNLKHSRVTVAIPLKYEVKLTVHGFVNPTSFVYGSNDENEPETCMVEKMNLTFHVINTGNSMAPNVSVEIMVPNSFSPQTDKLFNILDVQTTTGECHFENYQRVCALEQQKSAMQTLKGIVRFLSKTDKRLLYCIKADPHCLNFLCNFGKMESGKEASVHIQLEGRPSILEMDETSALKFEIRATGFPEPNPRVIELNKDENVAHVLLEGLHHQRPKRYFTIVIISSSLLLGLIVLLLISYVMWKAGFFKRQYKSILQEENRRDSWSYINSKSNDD

Row | Compound | IC50 [1] [nM] | IC50 [2] [nM]
1 | Cc1cc(C(F)(F)F)c(C(=O)N[C@@H](Cc2ccc(NC(=O)c3c(Cl)cccc3Cl)cc2)C(=O)O)c(C)n1 | 200 | 
2 | O=C(N[C@@H](Cc1ccc(NC(=O)c2c(Cl)cccc2Cl)cc1)C(=O)O)c1cc(C(F)(F)F)ccc1Cl | 450 | 8.8
3 | Cc1ccnc(C)c1C(=O)N[C@@H](Cc1ccc(NC(=O)c2c(Cl)cccc2Cl)cc1)C(=O)O | 23 | 0.89
4 | Cc1nc(C(C)C)sc1C(=O)N[C@@H](Cc1ccc(NC(=O)c2c(Cl)cccc2Cl)cc1)C(=O)O | 69 | 0.56
5 | CCCc1cccc(C)c1C(=O)N[C@@H](Cc1ccc(NC(=O)c2c(Cl)cccc2Cl)cc1)C(=O)O | 17 | 0.42
6 | CC(C)c1cccc(C(C)C)c1C(=O)N[C@@H](Cc1ccc(NC(=O)c2c(Cl)cccc2Cl)cc1)C(=O)O | 460 | 
7 | O=C(N[C@@H](Cc1ccc(NC(=O)c2c(Cl)cccc2Cl)cc1)C(=O)O)c1sccc1Br | 890 | 1.5
8 | COc1ccc(C(=O)N[C@@H](Cc2ccc(NC(=O)c3c(Cl)cccc3Cl)cc2)C(=O)O)c(Cl)c1 |  | 1.9
9 | O=C(Nc1ccc(C[C@H](NC(=O)c2c(F)cccc2C(F)(F)F)C(=O)O)cc1)c1c(Cl)cccc1Cl |  | 0.4
10 | O=C(N[C@@H](Cc1ccc(NC(=O)c2c(Cl)cccc2Cl)cc1)C(=O)O)c1cncnc1C(F)(F)F | 190 | 2
11 | Cc1noc(C)c1C(=O)N[C@@H](Cc1ccc(NC(=O)c2c(Cl)cccc2Cl)cc1)C(=O)O | 580 | 15
12 | CC(=O)c1cccc(Cl)c1C(=O)N[C@@H](Cc1ccc(NC(=O)c2c(Cl)cccc2Cl)cc1)C(=O)O | 49 | 1.6
13 | CCc1cccc(C)c1C(=O)N[C@@H](Cc1ccc(NC(=O)c2c(Cl)cccc2Cl)cc1)C(=O)O |  | 0.3
14 | Cc1nn(-c2ccccc2)nc1C(=O)N[C@@H](Cc1ccc(NC(=O)c2c(Cl)cccc2Cl)cc1)C(=O)O | 1440 | 25
15 | COc1ccc(Br)c(C(=O)N[C@@H](Cc2ccc(NC(=O)c3c(Cl)cccc3Cl)cc2)C(=O)O)c1 | 19 | 
16 | O=C(N[C@@H](Cc1ccc(NC(=O)c2c(Cl)cccc2Cl)cc1)C(=O)O)c1c(F)cccc1F | 67 | 1.2

The next lines start with the values.

Row | IC50 [1] [nM] | IC50 [2] [nM] | Compound
17 | 160 |  | CS(=O)(=O)c1ccccc1C(=O)N[C@@H](Cc1ccc(NC(=O)c2c(Cl)cccc2Cl)cc1)C(=O)O
18 | 1300 |  | O=C(N[C@@H](Cc1ccc(NC(=O)c2c(Cl)cccc2Cl)cc1)C(=O)O)c1ccc(Br)cc1Cl
19 | 180 | 2 | Cc1ncccc1C(=O)N[C@@H](Cc1ccc(NC(=O)c2c(Cl)cccc2Cl)cc1)C(=O)O
20 | 84 | 1.3 | Cc1cccc(C)c1C(=O)N[C@@H](Cc1ccc(NC(=O)c2c(Cl)cccc2Cl)cc1)C(=O)O
21 | 85 | 0.44 | Cc1cccc(F)c1C(=O)N[C@@H](Cc1ccc(NC(=O)c2c(Cl)cccc2Cl)cc1)C(=O)O
22 | 650 | 16 | O=C(N[C@@H](Cc1ccc(NC(=O)c2c(Cl)cccc2Cl)cc1)C(=O)O)c1ccccc1C(F)(F)F
23 | 1600 |  | O=C(N[C@@H](Cc1ccc(NC(=O)c2c(Cl)cccc2Cl)cc1)C(=O)O)c1cccc(Cl)c1Cl
24 | 100 | 0.4 | CSc1ccccc1C(=O)N[C@@H](Cc1ccc(NC(=O)c2c(Cl)cccc2Cl)cc1)C(=O)O
25 | 45 | 0.49 | O=C(N[C@@H](Cc1ccc(NC(=O)c2c(Cl)cccc2Cl)cc1)C(=O)O)c1ccccc1Br
26 | 12 | 0.3 | Cc1cccc(Cl)c1C(=O)N[C@@H](Cc1ccc(NC(=O)c2c(Cl)cccc2Cl)cc1)C(=O)O
27 | 74 | 1.9 | CC(C)(C)c1ccccc1C(=O)N[C@@H](Cc1ccc(NC(=O)c2c(Cl)cccc2Cl)cc1)C(=O)O
28 | 6800 |  | COc1ccccc1C(=O)N[C@@H](Cc1ccc(NC(=O)c2c(Cl)cccc2Cl)cc1)C(=O)O
29 | 460 | 11 | Cc1ccc(Cl)c(C(=O)N[C@@H](Cc2ccc(NC(=O)c3c(Cl)cccc3Cl)cc2)C(=O)O)c1
30 | 1300 |  | Cc1cccc(C(=O)N[C@@H](Cc2ccc(NC(=O)c3c(Cl)cccc3Cl)cc2)C(=O)O)c1Cl
31 | 1000 |  | CNc1ccccc1C(=O)N[C@@H](Cc1ccc(NC(=O)c2c(Cl)cccc2Cl)cc1)C(=O)O
